Data on 4 molecules can be found in patent publication US6831086B1, “Process for the inactivation of viruses with the aid of acridine derivatives” (ZLB Behring GmbH, priority 1994, dated 2004).

One assay concerns IBRV. The assay is described as follows: Inactivation of IBRV, infectiousness titration. It is filed as cell-based, Infectious bovine rhinotracheitis virus. To be noted: for Titer reduction / Treatment titer: 45° C.
A further assay has as its system PPV. The assay is described as follows: Inactivation of PPV, infectiousness titration. It is filed as cell-based, Porcine parvovirus.
For a further assay, the system named is BVDV. In words: Inactivation of BVDV, infectiousness titration. To be noted: Venimmun + BVDV; Acriflavine 0.001 mg/ml; 37° C.; 3 h. The class given is cell-based, Bovine viral diarrhoea virus.
For the next assay, the system named is CPV. In words: Inactivation of CPV in protein solutions, infectiousness titration. The class given is cell-based, Canine parvovirus. The following applies: Acriflavine 0.001 mg/ml.
The next assay relates to Haemate ® Factor VIII. The assay is described as follows: Clotting activity of Haemate after virus inactivation. It is filed as biochemical. To be noted: for Activity (clotting activity): Haemate ® Factor VIII, 3 hours 37° C.
In a further assay the target is Beriplex ® Factor II (Homo sapiens, UniProt P00734). The assay is described as follows: Clotting activity of Beriplex after virus inactivation. The class given is biochemical. The following applies: 3 hours 37° C.
The subject of a further assay is PI3 virus. The assay is described as follows: Inactivation of PI3 virus, infectiousness titration. It is filed as cell-based, Bovine parainfluenza 3 virus. To be noted: 37° C.; for Virus inactivation: EME medium.
In the next assay the test system is BPV. The assay is described as follows: Inactivation of BPV, infectiousness titration. It is filed as cell-based, Bovine parvovirus. The following applies: for Virus inactivation: BPV, 45° C.
The test system of assay [1] is envelope-containing and nonenveloped virus species. The class given is cell-based.
The mark [2] stands for this setting: Beriplex + PPV, Acriflavine 0.001 mg/ml, 30° C., 0 h.
Setting [3] is: Beriplex + PPV, Acriflavine 0.001 mg/ml, 30° C., 1 h.
The mark [4] stands for this setting: Beriplex + PPV, Acriflavine 0.001 mg/ml, 30° C., 2 h.
The mark [5] stands for this setting: Beriplex + PPV, Acriflavine 0.001 mg/ml, 30° C., 3 h.
[6] abbreviates: Beriplex + PPV, Acriflavine 0.001 mg/ml, 37° C., 3 h.
The mark [7] stands for this setting: Haemate + PPV, Acriflavine 0.001 mg/ml, 37° C., 3 h.
Where [8] appears, read: Beriplex + PPV, BACI 0.001 mg/ml, 30° C., 0 h.
[9] abbreviates: Beriplex + PPV, BACI 0.001 mg/ml, 30° C., 1 h.
The mark [10] stands for this setting: Beriplex + PPV, BACI 0.001 mg/ml, 30° C., 2 h.
[11] abbreviates: Beriplex + PPV, BACI 0.001 mg/ml, 30° C., 3 h.
Where [12] appears, read: Beriplex + PPV, BACI 0.01 mg/ml, 37° C., 0 h.
Setting [13] is: Beriplex + PPV, BACI 0.01 mg/ml, 37° C., 1 h.
Where [14] appears, read: Beriplex + PPV, BACI 0.01 mg/ml, 37° C., 2 h.
[15] abbreviates: Beriplex + PPV, BACI 0.01 mg/ml, 37° C., 3 h.

Turning to `CCOc1ccc2nc3cc(N)ccc3c(N)c2c1` [Ethacridine lactate], the Titer reduction with IBRV (0 h) was 0 log10/ml; in the assay with IBRV (1 h), 3.7 log10/ml; in the assay on IBRV (2 h), “≧2.8 log10/ml”. Besides, the Treatment titer with IBRV (0 h) is 6.5 log10/ml; in the assay on IBRV (1 h), 2.0 log10/ml; in the assay with IBRV (2 h), “≦1.5 log10/ml”.

Regarding “3,6-diamino-10-methylacridinium, chloride and 3,6-acridineidiamine [Acriflavine]”, the Titer reduction in the assay with PPV (setting [2]) is recorded as 0 log10/ml; in the assay on PPV (setting [3]), 1.0 log10/ml; in the assay with PPV (setting [4]) it was 1.7 log10/ml; in the assay with PPV (setting [5]), “≧3.3 log10/ml”; in the assay with PPV (setting [6]) it was “≧3.3 log10/ml”; with PPV (setting [7]), “≧3.8 log10/ml”. Also, the Titer reduction entry in the assay with BVDV is “≧6.0 log10/ml”; in the assay with CPV (FCS + CPV, 37° C., 3 h), 3.5 log10/ml; in the assay on CPV (FCS + CPV, 45° C., 0 h) it was 0 log10/ml; in the assay with CPV (FCS + CPV, 45° C., 1 h) it was 2.0 log10/ml; with CPV (FCS + CPV, 45° C., 2 h), 3.3 log10/ml; in the assay with CPV (FCS + CPV, 45° C., 3 h) it was 4.2 log10/ml. Further, the Titer reduction in the assay on CPV (Venimmun + CPV, 37° C., 3 h) was found to be 3.0 log10/ml. Further, the Treatment titer in the assay with PPV (setting [2]) is recorded as 4.8 log10/ml; with PPV (setting [3]), 3.6 log10/ml; with PPV (setting [4]) it was 2.9 log10/ml; in the assay on PPV (setting [5]), “≦1.5 log10/ml”; in the assay on PPV (setting [6]) it was “≦1.5 log10/ml”; in the assay on PPV (setting [7]) it was “≦1.5 log10/ml”. Besides, the Treatment titer amounted to 0 log10/ml with BVDV; 3.4 log10/ml in the assay with CPV (FCS + CPV, 37° C., 3 h); 6.8 log10/ml in the assay with CPV (FCS + CPV, 45° C., 0 h); 4.8 log10/ml in the assay on CPV (FCS + CPV, 45° C., 1 h); 3.5 log10/ml with CPV (FCS + CPV, 45° C., 2 h); 2.8 log10/ml in the assay on CPV (FCS + CPV, 45° C., 3 h). In the assay on CPV (Venimmun + CPV, 37° C., 3 h), the Treatment titer is on record as 3.9 log10/ml. The same molecule registered a Virus inactivation in the assay on IBRV (37° C., 2 hours) of 3.3 log10/ml. Further, the “Activity (clotting activity)” value in the assay on Haemate ® Factor VIII (A 0.001 mg/ml) came to 16.8 IU/ml; in the assay with Haemate ® Factor VIII (A 0.002 mg/ml), 18.9 IU/ml; at Beriplex ® Factor II (A 0.001 mg/ml), 50.0 IU/ml; at Beriplex ® Factor II (A 0.002 mg/ml), 48.8 IU/ml.

“Haemate®: Concentrate from clotting factor VIII and Von-Willebrand factor, pasteurized (Behringwerke AG)”: the “Activity decrease of clotting preparation after acridines/benzalkonium chloride inactivation, in words” value in the assay with Haemate ® Factor VIII (Table 7) is listed as “tolerable”.

For Benzalkonium chloride [BACI], the Virus inactivation entry in the assay on PI3 virus (BACI 0.005 mg/ml, 0-0.03 h) is on record as “≧5.9 log10/ml”; with PI3 virus (BACI 0.0125 mg/ml, 0-0.03 h), 0.5 log10/ml; in the assay with PI3 virus (BACI 0.0125 mg/ml, 1 h), 1.3 log10/ml; in the assay on PI3 virus (BACI 0.025 mg/ml, 0-0.03 h) it was 1.4 log10/ml; with PI3 virus (BACI 0.025 mg/ml, 1 h), “≧5.3 log10/ml”; in the assay with PI3 virus (BACI 0.05 mg/ml, 1 h), “≧5.3 log10/ml”. Moreover, the Virus inactivation entry with PI3 virus (BACI 0.1 mg/ml, 0-0.03 h) was “≧5.9 log10/ml”; with PI3 virus (BACI 0.1 mg/ml, 1 h) it was “≧5.3 log10/ml”; with BPV (BACI 0.01 mg/ml, 1 hour) it was 0 log10/ml; in the assay with BPV (BACI 0.01 mg/ml, 2 hours), 0 log10/ml; in the assay on BPV (BACI 0.05 mg/ml, 1 hour) it was 0 log10/ml; in the assay with BPV (BACI 0.05 mg/ml, 2 hours), 0 log10/ml. For the same molecule, in the assay with PI3 virus (high doses of BACI (0.1 mg/ml, 0.05 mg/ml), time needed to mix, sample and titrate), the “Inactivation of PI3 virus, in words” value is “infectious virus was no longer detectable”. The “Inactivation of BPV, in words” value with BPV (test conditions of Table 2, 45° C., 1 or 2 hours) is on record as “not inactivated”. Further, the Titer reduction in the assay with PPV (setting [8]), with PPV (setting [9]), in the assay on PPV (setting [10]), in the assay with PPV (setting [11]), with PPV (setting [12]) and in the assay with PPV (setting [13]) was 0 log10/ml throughout. Moreover, the Titer reduction is on record as 0 log10/ml in the assay with PPV (setting [14]) and 0.2 log10/ml in the assay with PPV (setting [15]). For the same molecule, the Treatment titer is recorded as 4.8 log10/ml in the assay on PPV (setting [8]); 4.8 log10/ml in the assay with PPV (setting [9]); 4.8 log10/ml in the assay with PPV (setting [10]); 4.6 log10/ml in the assay with PPV (setting [11]); 4.8 log10/ml with PPV (setting [12]); 4.6 log10/ml in the assay with PPV (setting [13]). The Treatment titer in the assay with PPV (setting [14]) and in the assay with PPV (setting [15]) was 4.6 log10/ml each time. For the same molecule, the “Activity (clotting activity)” value in the assay with Haemate ® Factor VIII (BACI 0.02 mg/ml) stood at 20.7 IU/ml; on Beriplex ® Factor II (BACI 0.02 mg/ml), 61.3 IU/ml. In addition, in assay [1], the “Virus species inactivated, in words” value was “only envelope-containing viruses can be, inactivated”.
